Measurements from patent publication US8853406B2, “Substituted phenylenediamines as inhibitors of the interaction between MDM2 and P53” (Janssen Pharmaceutica NV, priority 2007, dated 2014).

Test system: human U87 gliomoblastoma xenograft tumors
Assay: In vivo anti tumour effects, U87 glioblastoma xenograft
Set-up: species or system NMRI Nude mice
Details: for tumor growth of pre-established U87 xenograft: 21 days; for in vivo antitumoral activity: s.c. U87 xenograft in NMRI Nude mice
Protocol: FIG. 7 is the Antitumoral effect of compound No. 1 in U87 Glioblastoma Xenograft Tumors in NMRI Nude mice: • On day 0, male NMRI Nude mice were inoculated with a single subcutaneous injection into the inguinal region with human U87 Glioblastoma tumor cells ([…]). On day 8, mice were treated p.o. with vehicle (control group; 10% hydroxypropyl-β-cyclodextrin (□)) or vehicle containing Co No. 1 at either 2.5 mg/kg (▴), 5 mg/kg (▾), 10 mg/kg (♦) or 20 mg/kg (●) for 21 days (QD×21). Subcutaneous tumor volumes and body weights were measured twice weekly, until end of study and results represented as relative tumor volumes (mm^3). Dosing period indicated under x-axis.
The minimal efficacious dose (according to the NCI standard) in this model was 5 mg/kg.
Immuno-deficient (athymic) male NMRI Nude (Nu/Nu) mice (20-25 g were obtained from Janvier, France) were used for theses studies. Initial weight was approximately […]. All animals were maintained under SPF “full barrier” conditions with free access to food and water. Mice were group housed under a 12-h light:dark cycle (lights on at 06:00 h) at a temperature of 19 to 22° C. and 35 to 40% humidity in Techniplast type-3 IVC cages. Mice were fed a standard Laboratory chow. All experiments were carried out in accordance with the European Communities Council Directives (86/609/EEC) and were approved by the local ethical committee. For an established tumor xenograft model (tumor volume ˜200 mm^3), mice were randomized according to tumor volumes, with 10 to 14 mice per treatment group.
The human U87 glioma tumor cell line was derived from a patient. Cells were cultured at 37° C. in a humidified atmosphere (5% CO2, 95% air), in DMEM medium supplemented with 2 mM L-glutamine, 2.0 mM sodium pyruvate, 25 units/ml penicillin/25 μg/ml streptomycin and 10% fetal bovine serum. Cells were maintained as cell monolayer cultures, being passaged twice weekly at 3×10^6 cells per T175 flask using the following procedure. Briefly cells were washed with PBS (without Mg^2+, Ca^2+), before addition of trypsin-EDTA to the culture flasks. After detachment of cells the trypsin-EDTA was inactivated by addition of complete medium. Cell suspension was then transferred to 50 ml Falcon tube and centrifuged for 3 min at 1200 rpm. Medium was aspirated, with the cells being re-suspended in an appropriate volume of complete medium. The cells were counted in a haemocytometer and their viability was assessed by 0.25% trypan blue exclusion. An appropriate volume of cell suspension was then added to either a new T175 culture flask(s) or roller bottle containing fresh medium. For large scale-up growth of U87 tumor cells, an appropriate number of roller bottles were seeded with 0.5 to 1×10^7 cells 1 week prior to inoculation of mice. The medium was changed twice during this period, with the last change being the day prior to cell injection. Cells were collected as described above, with the exception that after centrifugation, the cells were re-suspended in cold (4° C.) serum-free medium. Mice were injected in the inguinal region with 1×10^7 cells total in a 200 μl volume.
Human U87 glioma cells were injected directly into the inguinal region of the male NMRI Nude mice (1×10^7 cells/200 μl/animal) on day 0 (D0). […] Tumor size and body weights were measured twice weekly, with mice monitored daily for clinical signs of toxicity for the duration of the treatment. […]

Cc1cc(Nc2ccnc3c2CCC3O)ccc1NCCc1c[nH]c2c(C)cccc12 (single isomer, unassigned) [Compound No. 1]
tumor growth of pre-established U87 xenograft (10 mg/kg oral): complete tumor growth inhibition and regression
tumor growth of pre-established U87 xenograft (20 mg/kg oral): complete tumor growth inhibition and regression
minimal efficacious dose (according to the NCI standard) (U87 xenograft, oral QD x 21): 5 mg/kg
in vivo antitumoral activity (listed as Co No. 1): potent inhibition in growth

Cc1cc(Nc2ccnc3c2CCC3O)ccc1NCCc1c[nH]c2c(C)cccc12 (single isomer, unassigned) [Compound No. 2]
in vivo antitumoral activity: showed in vivo antitumoral activity
